Assay results reported in paper PMC9098913, “In vitro reconstitution of Escherichia coli divisome activation” (Nature Communications, 2022).
Read-outs that look alike come from different tables or passages of the source.

Tests used:
FtsA self-interaction = assay: Cuvette FRET of FtsA in solution and with lipid vesicles (SUVs); assay type: binding, E. coli; settings: for FRET efficiency: Fig. S3c, in cuvette
Procedure: For in solution FRET experiments, increasing concentrations of Cy3-FtsA and Cy5-FtsA in a 50:50 ratio were mixed in 100 µl reaction buffer (50 mM Tris-HCl [pH7.4], 150 mM KCl and 5 mM MgCl2) inside a quartz cuvette (Hellma® fluorescence cuvettes, ultra Micro). The spectrums were measured using a Spectrophotometer Spectramax M2e Plate- + Cuvette Reader (Molecular Devices). Cy3-FtsA was excited at a wavelength of 520 nm and the resulting emission spectrum was recorded from 550–700 nm in 1 nm steps. To avoid crosstalk of the excitation light, a cutoff filter was set to 550 nm. Addition of ATP or small unilamellar vesicles (SUVs) was measured individually for each concentration. Buffer controls containing the corresponding reagents and only Cy5-FtsA were measured and used as background corrections for measurements with Cy3- and Cy5-FtsA. Background corrected spectra were used to estimate FRET efficiency by E(%)=Fa/Fd+Fa⋅100 , where Fa is the peak of acceptor (=Cy5) emission at 670 nm and Fd the peak of the emission of the donor (=Cy3) spectrum at 565 nm.

[1] = Fig. S4b, 0.10 % Tris NTA
Procedure: To study colocalization of His-tagged variants of FtsA, 0.5–1 µM of Cy5 labelled His-tagged FtsAs were added to the chamber, incubated for 20 min and washed 6x with reaction buffer. […] To control the density of membrane-bound FtsA, SUVs without and with Tris-NTA lipids were mixed to obtain the respective Tris-NTA concentrations. To perform FRET/FRAP experiments, equimolar concentrations of Cy3 and Cy5 labelled His-tagged FtsAs (total 0.5–1 µM) or His-SUMO-Cys were added to a chamber and treated as above. […] FRAP experiments were performed as described before.
To calculate the theoretical spacing of His-tagged FtsAs or the His-SUMO control, we consulted a previous QCM-D study using Tris-NTA lipids and a His-tagged version of ZipA[50]. The spacing in nm^2 was calculated by y=2/3⋅1/6.022⋅x⋅0.001 , where x is the protein density in pMol cm^−2 which can be estimated from the Tris-NTA lipid density.
To estimate the theoretical maximum packing of membranes containing Tris-NTA lipids, we can assume the area of a single FtsA molecule to be ~30 nm^2 and the area of a single lipid molecule to be 0.5 nm^2. […] For the FRET control experiments with His-SUMO-Cys, we estimate a four times smaller area for His6-SUMO Cys (~7 nm^2) and thus increase the maximum Tris-NTA density to 5%.

FtsA WT: wild-type E. coli actin-homologue FtsA, membrane anchor of FtsZ
FRET efficiency (FtsA self-interaction; + SUVs, 0.05 µM, mean, n = 3): 1.50% | FRET efficiency (FtsA self-interaction; + SUVs, 0.05 µM, replicate 1): 1.29% | FRET efficiency (FtsA self-interaction; + SUVs, 0.05 µM, replicate 2): 1.96% | FRET efficiency (FtsA self-interaction; + SUVs, 0.05 µM, replicate 3): 1.25% | FRET efficiency (FtsA self-interaction; + SUVs, 0.10 µM, mean, n = 3): 6.63% | FRET efficiency (FtsA self-interaction; + SUVs, 0.10 µM, replicate 1): 6.56% | FRET efficiency (FtsA self-interaction; + SUVs, 0.10 µM, replicate 2): 7.39% | FRET efficiency (FtsA self-interaction; + SUVs, 0.10 µM, replicate 3): 5.94% | FRET efficiency (FtsA self-interaction; + SUVs, 0.20 µM, mean, n = 3): 7.59% | FRET efficiency (FtsA self-interaction; + SUVs, 0.20 µM, replicate 1): 8.16% | FRET efficiency (FtsA self-interaction; + SUVs, 0.20 µM, replicate 2): 7.75% | FRET efficiency (FtsA self-interaction; + SUVs, 0.20 µM, replicate 3): 6.87% | FRET efficiency (FtsA self-interaction; without SUVs, 0.05 µM, mean, n = 3): 0.0114% | FRET efficiency (FtsA self-interaction; without SUVs, 0.05 µM, replicate 1): 0.0544% | FRET efficiency (FtsA self-interaction; without SUVs, 0.05 µM, replicate 2): -1.50% | FRET efficiency (FtsA self-interaction; without SUVs, 0.05 µM, replicate 3): 1.48% | FRET efficiency (FtsA self-interaction; without SUVs, 0.10 µM, mean, n = 3): 1.67% | FRET efficiency (FtsA self-interaction; without SUVs, 0.10 µM, replicate 1): 1.71% | FRET efficiency (FtsA self-interaction; without SUVs, 0.10 µM, replicate 2): 2.21% | FRET efficiency (FtsA self-interaction; without SUVs, 0.10 µM, replicate 3): 1.09% | FRET efficiency (FtsA self-interaction; without SUVs, 0.20 µM, mean, n = 3): 2.87% | FRET efficiency (FtsA self-interaction; without SUVs, 0.20 µM, replicate 1): 2.43% | FRET efficiency (FtsA self-interaction; without SUVs, 0.20 µM, replicate 2): 2.56% | FRET efficiency (FtsA self-interaction; without SUVs, 0.20 µM, replicate 3): 3.62% | FRET in solution (FtsA self-interaction; cuvette, no lipid): could not detect any significant FRET signal | FRET with lipid vesicles (FtsA self-interaction; cuvette, presence of lipid vesicles): FRET increased significantly

FtsA-His6: FtsA WT (1-405) with amphipathic helix replaced by C-terminal His-tag
FtsA His6 intensity on Tris NTA SLBs ([1]; replicate 1): 1571.82 a.u. | FtsA His6 intensity on Tris NTA SLBs ([1]; replicate 2): 1134.07 a.u. | FtsA His6 intensity on Tris NTA SLBs ([1]; replicate 3): 932.94 a.u.
